“And” between values parts separate entries of the source, which are not always exact repeats. Identical values can stand only once.
Key:
[1] = tested on: Male Sprague-Dawley rats with L5/L6 spinal nerve ligation; test: Spinal nerve ligation (SNL) model of neuropathic pain, tactile hypersensitivity (von Frey); format: in vivo; details: rat, 30 mg/kg IP, FIG. 7
From the text: Subjects. Male Sprague-Dawley rats (Indianapolis, Ind.) weighing 150 to 200 g at time of arrival, were individually housed in wire cages in a climate-controlled room. A 12-hour light/dark cycle (lights on at 0630) was in effect, and food and water were available ad libitum.
Surgery—Spinal Nerve Ligation. Rats were anesthetized with 3.5% halothane in O2 at 1 L/min and maintained with 1.5% halothane in O2 during surgery. Ligation of the L5 and L6 nerves was produced by an incision through the left paraspinal muscles. The left L5 and L6 spinal nerves were isolated adjacent to the vertebral column and ligated tightly with 6-0 silk suture just distal to the dorsal root ganglion. […]
Assessment of tactile hypersensitivity. […] Baseline tactile sensitivity was assessed using a series of calibrated von Frey monofilaments (Stoelting; Wood Dale, Ill.) 0 to 3 days before surgery. […] The ability of a single dose of test compound to reverse established hypersensitivity was assessed using a time course procedure. […]
Results are presented as the 50% threshold values (50% threshold in g force) estimated by the Dixon non-parametric test. […] Significant main effects were analyzed further by subsequent least significant difference analysis. […]
Reversal of tactile hypersensitivity was defined as a return to baseline of the tactile sensitivity and was calculated according to the following equation: […]

[2] = biological target: T1, human dopamine transporter (hDAT) (Homo sapiens, UniProt Q01959); test: Dopamine transporter (hDAT) membrane binding assay, 3H-WIN 35,428
T1 construct: purchased Perkin Elmer RBHDATM
T1 sequence (Q01959 whole entry): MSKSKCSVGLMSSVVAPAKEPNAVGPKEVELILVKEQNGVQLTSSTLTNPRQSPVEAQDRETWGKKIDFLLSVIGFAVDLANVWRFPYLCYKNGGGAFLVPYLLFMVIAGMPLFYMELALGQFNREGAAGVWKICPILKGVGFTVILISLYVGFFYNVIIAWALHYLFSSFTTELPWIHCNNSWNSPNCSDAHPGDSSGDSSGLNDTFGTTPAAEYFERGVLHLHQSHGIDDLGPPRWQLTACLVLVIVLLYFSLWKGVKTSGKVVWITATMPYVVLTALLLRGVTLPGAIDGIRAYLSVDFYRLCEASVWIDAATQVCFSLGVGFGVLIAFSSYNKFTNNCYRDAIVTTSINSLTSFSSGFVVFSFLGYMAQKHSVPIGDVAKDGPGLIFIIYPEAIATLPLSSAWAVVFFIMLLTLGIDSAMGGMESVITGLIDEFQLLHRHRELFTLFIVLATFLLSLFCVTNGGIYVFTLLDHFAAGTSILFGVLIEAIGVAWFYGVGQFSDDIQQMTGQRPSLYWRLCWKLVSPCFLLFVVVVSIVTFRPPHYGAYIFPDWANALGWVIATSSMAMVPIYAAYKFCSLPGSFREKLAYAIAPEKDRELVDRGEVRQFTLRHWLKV

[3] = tested on: ovariectomized (OVX) rats, tail skin temperature (TST); test: Telemetry rat model of ovariectomy-induced thermoregulatory dysfunction (tail skin temperature); format: in vivo; details: 30 mg/kg, sc; p<0.05 compared to vehicle control
From the text: This model has been modified from a previously reported protocol describing estrogen regulation of diurnal tail skin temperature (TST) patterns (Berendsen, et al., European Journal of Pharmacology, 2001, 419(1): 47-54). […] A temperature and physical activity transmitter (PhysioTel TA10TA-F40, Data Sciences International) was implanted subcutaneously in the dorsal scapular region and the tip of the temperature probe was tunneled subcutaneously 2.5 cm beyond the base of the tail. After a 7-day recovery period, TST readings were continuously recorded for the remainder of the study. Tail skin temperature readings were collected from each animal every 5 minutes with values obtained over a 10 second sampling period. The day before test day, an average baseline TST value was calculated for each animal by averaging temperature readings recorded during the 12 hour active (dark) phase. […]
Statistical analysis: Evaluation of a compound's ability to restore normal lowering of TST in the telemetry model was analyzed using hourly TST values calculated for each animal by averaging the 12 temperature readings obtained every 5 minutes over that recording time. […]
The effect of test compound is measured by evaluating the following parameters in this model: onset of action, duration of effect on TST, maximal change in TST and mean change in TST over the duration of the compound effect.

[4] = biological target: T2, human serotonin transporter (hSERT) (Homo sapiens, UniProt P31645); test: Serotonin (5-HT) uptake assay (hSERT function uptake) in JAR cells; format: cell-based; details: [3H]5-HT uptake
T2 construct: cells were stimulated with staurosporine (40 nM) to increase the expression of the 5-HT transporter; host or cells: JAR (human placental choriocarcinoma)
T2 sequence (P31645 whole entry): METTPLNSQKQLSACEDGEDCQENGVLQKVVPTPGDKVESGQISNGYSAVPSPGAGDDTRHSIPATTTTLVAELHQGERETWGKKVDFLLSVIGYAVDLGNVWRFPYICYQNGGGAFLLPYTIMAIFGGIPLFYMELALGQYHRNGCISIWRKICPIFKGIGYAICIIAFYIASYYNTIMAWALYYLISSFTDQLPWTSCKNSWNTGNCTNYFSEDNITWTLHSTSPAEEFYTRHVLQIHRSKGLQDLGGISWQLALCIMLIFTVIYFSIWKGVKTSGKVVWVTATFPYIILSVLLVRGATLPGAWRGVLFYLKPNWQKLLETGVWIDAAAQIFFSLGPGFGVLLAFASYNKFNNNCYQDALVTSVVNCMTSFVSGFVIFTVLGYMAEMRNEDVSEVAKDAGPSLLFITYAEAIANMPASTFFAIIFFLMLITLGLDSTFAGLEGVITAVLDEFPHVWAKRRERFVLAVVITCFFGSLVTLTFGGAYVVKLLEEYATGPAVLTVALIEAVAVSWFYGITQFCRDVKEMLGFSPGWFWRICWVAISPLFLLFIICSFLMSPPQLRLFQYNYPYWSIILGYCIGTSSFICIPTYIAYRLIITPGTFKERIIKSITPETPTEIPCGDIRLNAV
Description: The methods for 5-HT functional reuptake using the JAR cell line were modified using a previous literature report. […] On day 2, cells were stimulated with staurosporine (40 nM) to increase the expression of the 5-HT transporter. On day 3, cells were removed from the cell incubator two hours prior to assay and maintained at room temperature to equilibrate the growth medium to ambient oxygen concentration. […] Twenty-five microliters of assay buffer (maximum 5-HT uptake) or test compound were added directly to triplicate wells containing cells in 200 μl of assay buffer. The cells were incubated with the compound for 10 minutes (37° C.). […] The cells were incubated with the reaction mixture for 5 minutes at 37° C. The 5-HT uptake reaction was terminated by decanting the assay buffer.

[5] = biological target: human norepinephrine transporter (hNET) (Homo sapiens, UniProt P23975); details: read-out: hNET function uptake (EC50 in nm); MDCK-Net6 cells, [3H]NE uptake
Sequence of human norepinephrine transporter (hNET) (P23975 whole entry): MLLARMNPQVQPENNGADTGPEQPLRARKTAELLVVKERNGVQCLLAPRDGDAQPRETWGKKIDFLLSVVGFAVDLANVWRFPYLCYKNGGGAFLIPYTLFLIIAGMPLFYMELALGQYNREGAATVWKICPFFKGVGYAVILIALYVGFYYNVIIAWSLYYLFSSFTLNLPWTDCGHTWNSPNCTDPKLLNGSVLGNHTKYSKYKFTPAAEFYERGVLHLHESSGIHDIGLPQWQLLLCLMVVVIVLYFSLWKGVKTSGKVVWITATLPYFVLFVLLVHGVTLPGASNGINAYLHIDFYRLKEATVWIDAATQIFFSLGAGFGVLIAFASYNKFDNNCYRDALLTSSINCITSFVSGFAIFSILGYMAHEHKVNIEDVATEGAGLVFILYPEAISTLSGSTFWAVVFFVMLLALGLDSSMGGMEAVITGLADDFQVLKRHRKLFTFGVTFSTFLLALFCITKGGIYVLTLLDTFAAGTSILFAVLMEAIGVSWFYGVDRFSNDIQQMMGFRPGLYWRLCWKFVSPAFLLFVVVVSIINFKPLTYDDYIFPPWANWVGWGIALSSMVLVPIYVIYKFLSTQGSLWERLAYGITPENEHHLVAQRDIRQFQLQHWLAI

| hDAT binding (% I at 1 μM) ([2]; 1 μM) [% I] | hDAT binding (% I at 10 μM) [2] | EC50 [4] [µM] | EC50 [5] [µM] | SMILES | Reversal of tactile allodynia in the SNL neuropathic pain model [1] | Restoration of normal TST in OVX-induced thermoregulatory dysfunction telemetry model [3] |
| --- | --- | --- | --- | --- | --- | --- |
| – | – | – | – | Clc1ccc(C23CNCC2C3)cc1Cl (racemic) [Racemic 1-(3,4-dichlorophenyl)-3-azabicyclo[3.1.0]hexane, 1-(3,4-dichlorophenyl)-3-azabicyclo[3.1.0]hexane] | significantly reverses tactile allodynia | – |
| 26.5 | 45 % I and 52.1 % I | – | – | Cc1ccc(C23CNCC2C3)cc1 (racemic) [Racemic 1-(4-methylphenyl)-3-azabicyclo[3.1.0]hexane, 1-(4-methylphenyl)-3-azabicyclo[3.1.0]hexane] | – | restores normal TST |
| – | 51 % I | 7.35 | 0.148 | Cc1ccc(C23CNCC2C3)cc1 (single isomer, unassigned; (+)) [(+)-1-(4-methylphenyl)-3-azabicyclo[3.1.0]hexane] | – | restores normal TST |
